No end group written: not given here.
Tests used:
tPA [1] = target: T1, tPA (Homo sapiens, UniProt P00750); assay: Halo clot thrombolysis assay, tPA thrombolysis of whole blood clots; format: biochemical; conditions: tPA 5 nM, 27.5% human plasma
T1 construct: purchased Boehringer Ingelheim, Germany 10 mg vial
Description: (§1) We utilised a high throughput 96-well plate thrombolysis assay (“halo clot assay”) based on the procedure developed by Bonnard et al.. To reduce assay components the halo thrombus formation procedure was modified by replacing the original thrombotic mixture consisting of recombinant tissue factor and synthetic phospholipids reconstituted in 30 mM calcium, with thrombin, and reducing the pro-thrombotic volume (i.e., thrombin) from 5 to 3 µL and blood volume from 25 to 12 µL. Another modification to simplify clot formation consisted of adding the thrombin (3 µL; 500 nM in saline) to one side of the well and 12 µL of blood to the opposite side of well, before using a heat stretched Pasteur pipette with sealed end to mix the two liquids together using 4 to 5 circular motions around the edge of the well (halo clot). The original methodology involved adding the 5 μL of the clotting mixture to the edge of the well, and then using a micropipette to slowly release the 25 μL of blood to the edge of the well while at the same time maintaining a circular motion. Plates were incubated in a humidified 37 °C incubator for 1 h before use in the thrombolysis assay.
(§2) The thrombolysis assay involved adding 30 µL of Tris buffer (50 mM Tris–HCl, 100 mM NaCl, pH 7.4) with or without peptide followed by 55 µL Tris buffer containing tPA or TNK (5 nM final concentration) and 50% human plasma (final plasma concentration during thrombolysis 27.5%). The final concentration of peptide during thrombolysis ranged from 0.25 to 16 µM (note: an intravenous dose of R18D at 350 nmol/kg, which is likely to be neuroprotective achieves a Cmax of 0.7–0.9 µM in healthy male and female rats; unpublished observation). […] Following the addition of tPA or TNK into the wells, clot lysis was monitored over a 1-h period at 37 °C using a plate reader (Cytation5, BioTek, USA) by measuring absorbance at 510 nm every 1 min immediately after orbital shaking (205 rpm for 5 s). Controls consisted of wells with no thrombin (100% clot lysis; L100%) and wells with no tPA or TNK (0% clot lysis; L0%). At the 1-h time point, the percentage of thrombolysis (%T) in tPA or TNK treated samples (LTX) was calculated by transforming absorbance values based on the formula: % T = (LTX) − (L0%)/(L100%) − (L0%) × 100. In addition, during the 1-h period of clot lysis lag time and maximal activity (also known as maximum velocity or Vmax) of the thrombolysis reaction were calculated. The lag time is defined as the time interval between the first absorbance reading (time = 0) and the line of maximum slope of the thrombolysis reaction. The maximal activity is calculated from the maximum slope over the time course of the assay and reflects the capacity of an enzyme to catalyse a reaction (i.e., thrombolysis), with higher values representing higher catalytic activity (i.e., tPA/TNK induced plasmin thrombolysis).
(§3) For each thrombolysis assay, replicates for control wells (L0% and L100%) and tPA or TNK only treated wells consisted of n = 4–8. Replicates for tPA or TNK and peptide treated wells consisted of n = 4. For data analysis and graphical representations of the results, data from three independent thrombolytic assays were pooled. Studies consisted of R18D, R18 and NA-1 examined at the 0.5, 1, 2, 4, 8 or 16 µM concentrations performed concurrently on the same 96-well plate, in respective order. In addition, since R18D is known to be resistant to plasmin degradation and appeared to have the most impact on tPA or TNK thrombolysis, a separate set of three independent assays were performed for this peptide alone at concentrations of 0.25, 0.5, 1, 2, 4, 8 or 16 µM. Furthermore, the second dose study with R18D provided the opportunity to include a lower concentration (0.25 µM) of the peptide and to provide comparative data when only one peptide was examined in the thrombolysis assay per 96-well plate as opposed to examining the three peptides concurrently on the same plate. […]

TNK [2] = target: T2, TNK (Homo sapiens, UniProt P00750, H332A/K331A/N152Q/R333A/R334A/T138N); assay: Halo clot thrombolysis assay, TNK thrombolysis of whole blood clots; format: biochemical; conditions: concurrent study, TNK 5 nM, 27.5% human plasma
T2 construct: purchased Boehringer Ingelheim 50 mg vial
Description: as §1, §2, §3

tPA or TNK = format: biochemical, human
Description: as §1, §2
For each thrombolysis assay, replicates for control wells (L0% and L100%) and tPA or TNK only treated wells consisted of n = 4–8. Replicates for tPA or TNK and peptide treated wells consisted of n = 4. For data analysis and graphical representations of the results, data from three independent thrombolytic assays were pooled. Studies consisted of R18D, R18 and NA-1 examined at the 0.5, 1, 2, 4, 8 or 16 µM concentrations performed concurrently on the same 96-well plate, in respective order. […]

tPA [3] = target: T1, tPA; assay: Neuroprotective proteolytic stability after pre-incubation with tPA (glutamic acid excitotoxicity model, MTS); format: in vitro ADME; conditions: 1 or 2 h or overnight (22-24 h)
Description: (§4) Neuronal cultures were maintained in CO2 incubator.
(§5) tPA (1000 µg/mL) or TNK (5000 µg/mL) resuspended in water (Baxter) were used to prepare 10 µg/mL (170 nM; note this is 34 times the concentration used in thrombolysis assay) stocks in MEM/2% B27 supplement (MEM/B27).
(§6) All data are presented as mean ± standard deviation (SD).

TNK [4] = target: T2, TNK; assay: Neuroprotective proteolytic stability after pre-incubation with TNK (glutamic acid excitotoxicity model, MTS); format: in vitro ADME; conditions: 1 or 2 h or overnight (22-24 h)
Description: as §4, §5, §6

trypsin (TrypLE Express) = trypsin (TrypLE Express) (Fusarium oxysporum, UniProt P35049); conditions: inferred from neuroprotection; peptide 2 µM, 50% TrypLE Express, 1 or 2 h or overnight (22-24 h)
Description: Rat primary cortical cultures were established from embryonic day 18–19 Sprague–Dawley rats (Animal Resources Centre, WA, Australia). Briefly, cortical tissue was dissociated in 2 mL Hanks balanced salt solution (HBBS; Life Technologies, Australia) supplemented with 1.3 mM L-cysteine, 10 U/mL papain (Sigma-Aldrich, Australia) and 50 U/mL DNase (Sigma-Aldrich) by trituration with a fire-polished pipette. Dissociated neurons were transferred to a 15-mL tube containing 13 mL of cold Dulbecco’s modified Eagle’s medium (DMEM; Life Technologies)/10% horse serum (Life Technologies) and centrifuged for 4 min at 300×g. Neurons were gently resuspended in 1.5 mL of cold Neurobasal (NB; Life Technologies)/2% B27 supplement (B27; Life Technologies) and the neuronal cell concentration adjusted to 50,000 neurons/70 μL and 70 μL inoculated into each well of a 96-well microtiter plate (Nunc, USA) pre-treated wells. Pre-treated wells were coated with 50 μL of poly-D-lysine (50 μg/mL; 70–150 K; Sigma-Aldrich) for 2–3 h at room temperature before being replaced with 50 μL of NB/B27, 4% fetal bovine serum (Life Technologies), 1% horse serum, 62.5 μM glutamic acid, 25 μM 2-mercaptoethanol, 30 μg/mL penicillin and 50 μg/mL streptomycin and placed in a CO2 incubator (5% CO2, 95% air balance, 98% humidity, 37 °C) prior to seeding with neurons. Neuronal cultures were maintained in CO2 incubator. On day in vitro four, 60 µL fresh NB/B27 containing the mitotic inhibitor cytosine arabinofuranoside (final concentration 0.15 μM; Sigma-Aldrich) was added and neuronal culture were used on day in vitro 11 to 13.
As an alternative to trypsin, TrypLE Express (Thermo Fischer Scientific, Australia) a synthetic serine protease with trypsin-like activity was used. […] Hereafter, TrypLE Express is referred to as trypsin.
Trypsin solution was added to an equal volume of MEM/2% B27 (T:MEM/B27). […] Following the incubation, 50 µL of the T:MEM/B27 or HBSS:MEM/B27 peptide solution was used to treat neuronal culture as described below for the glutamic acid excitotoxicity model. […]

plasmin = conditions: cited from earlier work
From the text: Given the potential future application of the R18D, R18 and NA-1 peptides as ischaemic stroke neurotherapeutics, it is important to establish if they interfere with current and future standard of care treatments, namely alteplase (tPA; recombinant tissue plasminogen activator) and tenecteplase (TNK; a modified version of tPA) thrombolysis, which are routinely administered prior to thrombectomy. […] NA-1 is also degraded by plasmin [8]. Together, these findings confirm that peptides synthesised with D-enantiomer amino acids such as R18D, unlike peptides synthesised with L-enantiomer amino acids are highly resistant to proteolytic degradation and are likely to retain their neuroprotective efficacy ...

tPA [5] = target: T1, tPA; conditions: cited from earlier work
From the text: (§7) A potential mechanism that could negatively influence the neuroprotective efficacy of a peptide (and protein) neurotherapeutic when co-administered with a thrombolytic agent in ischaemic stroke is its proteolytic stability. For example, a peptide could be degraded directly by the proteolytic action of tPA and TNK, or indirectly by plasmin following its activation by tPA/TNK.

[6] = in the order; 8 (NA-1), unpublished data (R18D); cited from earlier work
From the text: It is important to mention that the results obtained in this study are likely to overestimate any negative effects of R18D, R18 and NA-1 on tPA/TNK lag time and thrombolysis compared with what would occur clinically for several reasons. Firstly, positively charged peptides administered directly into the circulation would have a larger pool of negatively charged plasma proteins such as albumin to bind, and thus reduce any inhibitory electrostatic effects of the peptides on lag time and thrombolysis. In addition, the in vitro thrombolysis assay used in this study was performed in 27.5% plasma wh ...

whole blood halo clot = assay: Halo assay dose response study of tPA and TNK; format: biochemical, human; conditions: 5 nM tPA or TNK, halo assay dose response study (Supplementary Fig. 1; assay performed without added plasma), N = 4
Description: We utilised a high throughput 96-well plate thrombolysis assay (“halo clot assay”) based on the procedure developed by Bonnard et al.. To reduce assay components the halo thrombus formation procedure was modified by replacing the original thrombotic mixture consisting of recombinant tissue factor and synthetic phospholipids reconstituted in 30 mM calcium, with thrombin, and reducing the pro-thrombotic volume (i.e., thrombin) from 5 to 3 µL and blood volume from 25 to 12 µL. […]
The thrombolysis assay involved adding 30 µL of Tris buffer (50 mM Tris–HCl, 100 mM NaCl, […] during thrombolysis 27.5%). […] Following the addition of tPA or TNK into the wells, clot lysis was monitored over a 1-h period at 37 °C using a plate reader (Cytation5, BioTek, USA) by measuring absorbance at 510 nm every 1 min immediately after orbital shaking (205 rpm for 5 s). […] At the 1-h time point, the percentage of thrombolysis (%T) in tPA or TNK treated samples (LTX) was calculated by transforming absorbance values based on the formula: % T = (LTX) − (L0%)/(L100%) − (L0%) × 100. In addition, during the 1-h period of clot lysis lag time and maximal activity (also known as maximum velocity or Vmax) of the thrombolysis reaction were calculated. The lag time is defined as the time interval between the first absorbance reading (time = 0) and the line of maximum slope of the thrombolysis reaction. […]

[7] = human, in vivo, 0.5 mg/kg; cited from earlier work
From the text: as §7

T2 sequence (P00750 36-562 T138N/N152Q/K331A/H332A/R333A/R334A): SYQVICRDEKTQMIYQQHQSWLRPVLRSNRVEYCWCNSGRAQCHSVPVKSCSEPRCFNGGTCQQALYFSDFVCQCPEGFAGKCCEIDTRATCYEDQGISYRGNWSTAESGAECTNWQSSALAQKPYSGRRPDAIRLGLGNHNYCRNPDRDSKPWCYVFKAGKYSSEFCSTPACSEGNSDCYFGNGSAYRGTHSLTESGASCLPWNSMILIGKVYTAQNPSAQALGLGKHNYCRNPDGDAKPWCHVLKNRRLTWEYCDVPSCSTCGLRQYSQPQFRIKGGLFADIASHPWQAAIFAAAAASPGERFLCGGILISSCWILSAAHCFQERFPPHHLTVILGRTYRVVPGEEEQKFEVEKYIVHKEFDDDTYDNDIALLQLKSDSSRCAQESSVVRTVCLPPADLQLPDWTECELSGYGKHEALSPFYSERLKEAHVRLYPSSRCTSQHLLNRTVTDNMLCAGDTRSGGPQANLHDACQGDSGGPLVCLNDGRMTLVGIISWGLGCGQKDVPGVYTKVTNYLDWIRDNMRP
T1 sequence (P00750 36-562): as the sequence (P00750 36-562 T138N/N152Q/K331A/H332A/R333A/R334A) above, with N103T, Q117N, A296K, A297H, A298R, A299R counted along it
Sequence of trypsin (TrypLE Express) (P35049 25-248): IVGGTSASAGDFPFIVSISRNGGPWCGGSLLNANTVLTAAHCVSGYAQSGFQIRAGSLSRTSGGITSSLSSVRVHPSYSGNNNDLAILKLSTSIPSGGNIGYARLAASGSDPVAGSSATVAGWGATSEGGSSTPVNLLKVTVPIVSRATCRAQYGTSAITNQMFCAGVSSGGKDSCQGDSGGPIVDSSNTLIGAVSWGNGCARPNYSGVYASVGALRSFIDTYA

Substance | Effect on tPA lag time vs tPA control (tPA [1]; concurrent study, 0.5-16 µM peptide) | Increase in tPA thrombolysis maximal activity (tPA [1]; peptide 16 µM, concurrent study, 37 °C) | Effect on percentage tPA thrombolysis at 1 h vs tPA control (tPA [1]; three peptides concurrently on the same plate, 0.5-16 µM peptide, Tris pH 7.4, 37 °C, 1 h, absorbance 510 nm, three independent assays pooled, n = 4, Dunnett's test) | Effect on TNK thrombolysis maximal activity vs TNK control (TNK [2]; 0.5-16 µM peptide) | Effect on percentage TNK thrombolysis at 1 h vs TNK control (TNK [2]; 0.5-16 µM peptide, 37 °C, 1 h) | Increase in TNK lag time (TNK [2]; peptide 8 µM, 37 °C) | Increase in lag time (time to the commencement of thrombolysis) (tPA or TNK; range over peptide concentrations 0.25-16 µM and both thrombolytics, 1-h assay) | Effect on maximal activity of the thrombolysis reaction (tPA or TNK; summary in abstract) | Resistance to degradation by tPA (tPA [3]; inferred from retained neuroprotection, peptide 2 µM, tPA 170 nM) | Neuroprotective efficacy after incubation with tPA (tPA [3]; peptide 2 µM in MEM/B27 with tPA 10 µg/mL (170 nM), 37 °C CO2 incubator, then rat cortical neurons, glutamic acid 100 µM 5 min, MTS viability at 20-24 h, N = 4-8) | Resistance to degradation by TNK (TNK [4]; inferred from retained neuroprotection, peptide 2 µM, TNK 170 nM) | Neuroprotective efficacy after incubation with TNK (TNK [4]; peptide 2 µM in MEM/B27 with TNK 10 µg/mL (170 nM), 37 °C CO2 incubator, then rat cortical neurons, glutamic acid 100 µM 5 min, MTS viability at 20-24 h, N = 4-8) | Resistance to degradation by trypsin (trypsin (TrypLE Express)) | Neuroprotective properties in the glutamic acid excitotoxicity injury model when pre-incubated with plasmin (plasmin) | Sensitivity to proteolytic degradation by plasmin (plasmin) | Degradation when incubated with tPA (tPA [5]) | In vivo peak plasma concentration [6] | Plasma half-life [6] | Clot lysis after 1-h (whole blood halo clot) | Serum concentration [7]
RRRRRRRRRRRRRRRRRR [R18] | did not significantly increase tPA lag time | 48.36% | did not significantly inhibit thrombolysis | did not significantly impact TNK thrombolysis maximal activity | did not significantly inhibit TNK thrombolysis | 5.53 min | 0 to 5.53 min | appeared to increase the maximal activity | resistant to degradation | a similar and a high level of neuroprotective efficacy | resistant to degradation | a similar and a high level of neuroprotective efficacy | only R18D is resistant | not | sensitive | – | – | – | – | –
YGRKKRRQRRRKLSSIESDV [NA-1, reference compound] | – | – | – | – | – | – | – | – | – | – | – | – | – | – | sensitive | is not degraded | 1 to 5 µM | 5 to 15 min | – | –
tPA: recombinant tissue plasminogen activator | – | – | – | – | – | – | – | – | – | – | – | – | – | – | – | – | – | – | approximately 90% | ≤ 30 nM

From publication PMC9259545, “Impact of poly-arginine peptides R18D and R18 on alteplase and tenecteplase thrombolysis in vitro, and neuroprotective stability to proteolysis” (Journal of Thrombosis and Thrombolysis, 2022)
